“Also recorded” adds a separate entry of the source. Active and inactive are the calls of the source. The rule behind the calls is not given here.

The data set concerns CCRIS mutagenicity, Ames/micronucleus/aberration tests. Kind of data set: CCRIS mutagenicity studies.

As for `C[C@]12CC[C@@H]3c4ccc(O)cc4CC[C@H]3[C@@H]1CC[C@@H]2O`, the mutagenic call is “active; positive (ploidy changes)” (End Point: IN VITRO CHROMOSOMAL ABERRATIONS, Test System: CHINESE HAMSTER CELL DON (22;XY), Metabolic Activation: NONE); “active; positive (structural changes)” (End Point: IN VITRO CHROMOSOMAL ABERRATIONS, Test System: CHO CELLS, Metabolic Activation: NONE); “active; positive (ploidy changes in chromosomes 1, 9, 16); also recorded: active; positive (ploidy changes in chromosomes 7 and 9)” (End Point: IN VITRO CHROMOSOMAL ABERRATIONS, Test System: HUMAN LYMPHOCYTES, Metabolic Activation: NONE, Method: FISH); “inactive; negative” (End Point: IN VITRO CHROMOSOMAL ABERRATIONS, Test System: HUMAN PERIPHERAL LYMPHOCYTES, Metabolic Activation: RAT, LIVER, S-9, AROCLOR 1254); “active; positive” (End Point: IN VITRO CHROMOSOMAL ABERRATIONS, Test System: HUMAN PERIPHERAL LYMPHOCYTES, Metabolic Activation: RAT, LIVER, S-9, PHENOBARBITONE); “active; positive (ploidy changes)” (End Point: IN VITRO CHROMOSOMAL ABERRATIONS, Test System: SYRIAN HAMSTER EMBRYO (SHE) CELLS, Metabolic Activation: NONE). Further, the mutagenic call was “active; positive” (End Point: IN VITRO MICRONUCLEUS, Test System: HUMAN PERIPHERAL BLOOD LYMPHOCYTES, Metabolic Activation: NONE); “active; positive” (End Point: IN VITRO MICRONUCLEUS, Test System: HUMAN PERIPHERAL LYMPHOCYTES, Metabolic Activation: NONE); “inactive; negative” (End Point: IN VIVO MICRONUCLEUS, Test System: BONE MARROW POLYCHROMATIC ERYTHROCYTES, Species: MOUSE, Strain/Sex: B6C3F1/MALE, FEMALE, Route: IP INJECTION); “inactive; negative” (End Point: IN VIVO MICRONUCLEUS, Test System: BONE MARROW POLYCHROMATIC ERYTHROCYTES, Species: MOUSE, Strain/Sex: B6C3F1/MALE, Route: IP INJECTION); “inactive; negative” (End Point: IN VIVO MICRONUCLEUS, Test System: BONE MARROW POLYCHROMATIC ERYTHROCYTES, Species: MOUSE, Strain/Sex: CBA/MALE, Route: IP); “inactive; negative” (End Point: IN VIVO MICRONUCLEUS, Test System: BONE MARROW POLYCHROMATIC ERYTHROCYTES, Species: RAT, Strain/Sex: F344/MALE, Route: IP INJECTION). The mutagenic call is, setting by setting: (Test System: AMES SALMONELLA TYPHIMURIUM, Strain/Indicator: TA98, Metabolic Activation: MOUSE, LIVER, S-9, Method: STANDARD PLATE) “inactive; negative”; (Test System: AMES SALMONELLA TYPHIMURIUM, Strain/Indicator: TA98, Metabolic Activation: NONE, Method: STANDARD PLATE) “inactive; negative”; (Test System: AMES SALMONELLA TYPHIMURIUM, Strain/Indicator: TA98, Metabolic Activation: RAT, LIVER, S-9, AROCLOR 1254, Method: STANDARD PLATE) “inactive; negative”; (Test System: AMES SALMONELLA TYPHIMURIUM, Strain/Indicator: TA100, Metabolic Activation: MOUSE, LIVER, S-9, Method: STANDARD PLATE) “inactive; negative”; (Test System: AMES SALMONELLA TYPHIMURIUM, Strain/Indicator: TA100, Metabolic Activation: NONE, Method: STANDARD PLATE) “inactive; negative”; (Test System: AMES SALMONELLA TYPHIMURIUM, Strain/Indicator: TA100, Metabolic Activation: RAT, LIVER, S-9, AROCLOR 1254, Method: STANDARD PLATE) “inactive; negative”. The mutagenic call reads like this: (Test System: AMES SALMONELLA TYPHIMURIUM, Strain/Indicator: TA1535, Metabolic Activation: MOUSE, LIVER, S-9, Method: STANDARD PLATE) “inactive; negative”; (Test System: AMES SALMONELLA TYPHIMURIUM, Strain/Indicator: TA1535, Metabolic Activation: NONE, Method: STANDARD PLATE) “inactive; negative”; (Test System: AMES SALMONELLA TYPHIMURIUM, Strain/Indicator: TA1535, Metabolic Activation: RAT, LIVER, S-9, AROCLOR 1254, Method: STANDARD PLATE) “inactive; negative”; (Test System: AMES SALMONELLA TYPHIMURIUM, Strain/Indicator: TA1537, Metabolic Activation: MOUSE, LIVER, S-9, Method: STANDARD PLATE) “inactive; negative”; (Test System: AMES SALMONELLA TYPHIMURIUM, Strain/Indicator: TA1537, Metabolic Activation: NONE, Method: STANDARD PLATE) “inactive; negative”; (Test System: AMES SALMONELLA TYPHIMURIUM, Strain/Indicator: TA1537, Metabolic Activation: RAT, LIVER, S-9, AROCLOR 1254, Method: STANDARD PLATE) “inactive; negative”. In addition, the mutagenic call is “inactive; negative” (Test System: AMES SALMONELLA TYPHIMURIUM, Strain/Indicator: TA1538, Metabolic Activation: MOUSE, LIVER, S-9, Method: STANDARD PLATE); “inactive; negative” (Test System: AMES SALMONELLA TYPHIMURIUM, Strain/Indicator: TA1538, Metabolic Activation: NONE, Method: STANDARD PLATE); “inactive; negative” (Test System: AMES SALMONELLA TYPHIMURIUM, Strain/Indicator: TA1538, Metabolic Activation: RAT, LIVER, S-9, AROCLOR 1254, Method: STANDARD PLATE); “inactive; negative” (Test System: CHINESE HAMSTER V-79, Strain/Indicator: V-79 (HPRT)/6-THIOGUANINE, Metabolic Activation: NONE); “active; positive” (Test System: CHINESE HAMSTER V-79, Strain/Indicator: V-79 (HPRT)/6-THIOGUANINE, Metabolic Activation: NONE, Method: SUSPENSION/PLATE); “inactive; negative” (Test System: UDS RAT HEPATOCYTES, Strain/Indicator: THY INCORP (18-20 HR), Metabolic Activation: NONE, Method: LIQUID SCINTILLATION COUNTING).
Take `CCCCCCCCCCCC[N+](C)(C)COCCCCCCCCC`: the mutagenic call (Test System: BACILLUS SUBTILIS, Strain/Indicator: H17/REC, Metabolic Activation: NONE, Method: STANDARD PLATE) is “inactive; negative” and the mutagenic call (Test System: BACILLUS SUBTILIS, Strain/Indicator: M45, Metabolic Activation: NONE, Method: STANDARD PLATE) was “inactive; negative”.

These data come from PubChem BioAssay AID1259407 (Chemical Carcinogenesis Research Information System (CCRIS), 2018).
